Where “and” joins values, the source holds several entries; their conditions need not be identical. Identical values can stand only once. Entries after “also recorded” stand apart in the source; their conditions may differ. Peptide text beside a SMILES is read from it.
Experiments:
hepatic GSH = assay: Test No. 4: dichloropropane (DCP) intoxication in vivo, hepatic GSH; design: species or system rat
Description: A test was carried out in vivo on four groups of four rats each, using, as a toxic substance, dichloropropane (DCP), the main constituent of several solvents. DCP is noxious both by ingestion and inhalation and has a notable toxicity to the liver, mediated by an almost total depletion of thiol groups, including those of GSH.
The experimental model involves the study of the effect of DCP toxicity in the rat, in respect of glutathione (GSH) concentration in the main target tissue: the liver.
Tests were carried out on four groups of rats. The first group of animals was administered 2 ml DCP/kg dissolved in oil (40% v/v) per os. Twenty-four hours after DCP administration, blood samples were taken for SGPT measurement, while the animals were sacrificed; small portions of liver were then excised and immediately deproteinized by homogenization in 6% PCA. The chromatographic analyses of GSH and GSSG (oxidized glutathione) were performed.
The second group of animals was treated with the test drug (600 mg/kg i.p.) two hours after DCP administration. The third and fourth groups were treated with N-acetyl-cysteine (NAC) (250 mg/kg i.p.) and, respectively, with glutathione (Tationil^R) (600 mg/kg i.p.).
An evaluation of the protective action of the test drug in respect of glutathione involvement in hepatic protection mechanisms was thus possible.

[1] = system: serum antibodies versus ram erythrocytes; assay: Immunization tests versus ram erythrocytes in rat immunodepressed by cyclophosphamide (CTX); format: in vivo, Sprague-Dawley rats; conditions: for serum antibodies level (agglutination, Days from immunization): 600 mg/kg i.p. + CTX
Description: (§1) Sprague-Dawley rats (Charles River, Calco (CO)), aged 10 weeks (young adults) and 24 months (old), were stabled under standard conditions (24°±1° C., 12 h light/dark cycle, free access to food and water). Handlings were made in such a way as to avoid stressful stimuli.
(§2) The animals were stabled in groups of 6 per cage and treated for 2 weeks (15 days) with a PSC daily dose of 600 mg/kg by intraperitoneal route (i.p.).
Immunization tests versus ram erythrocytes in Sprague-Dawley rat immunodepressed by cyclophosphamide (CTX)
0.3 Milliliters of ram erythrocytes (3%) in 0.9% sodium chloride solution were injected to Sprague-Dawley rats, both young (aged 10 weeks, weighing 150-200 g) and old (aged 24 months). A second injection was made on the 21st day after the first one. The rats were treated with PSC (600 mg/kg i.p.). Treatment started 3 days before immunization and continued until the 40th day of experiment. Cyclophosphamide (CTX) (150 mg/kg/die) was injected i.p. on the 3rd, 4th, and 5th day after immunization with erythrocytes.
The animals were subdivided (6 animals each group) into the following experimental groups:
1) Non-immunized controls (CTRL);
2) Immunized controls (CTRL);
4) Immunized +CTX+PSC (600 mg/kg i.p.).
The determination of serum antibodies levels was carried out by agglutination reaction: the serum in 0.9% sodium chloride solution was diluted from 1:2 to 1:1024 and ram erythrocytes at a concentration of 5×10^8 /ml were added. The determination of antibodies was carried out 2 hrs after incubation at 37° C. Each sample was assayed twice (Tables 11 and 12).

peripheral lymphocytes [2] = assay: Blastization with concavaline A (ConA) of peripheral lymphocytes of PSC-treated rats; format: in vivo, Sprague-Dawley rats
Description: as §1, §2
(§3) Once the treatment with PSC previously described in the paragraph "Animals" was completed, the animals, both young and old, were sacrificed by decapitation and the blood collected in heparin-treated tubes. The blood samples were stratified on Ficoll-Paque gradient and centrifuged at 2500 rpm for 15 min. The lymphocytic cellular fraction was taken by suction and washed three times with a Lphysiological solution (0.9% NaCl). At the end of the treatment, the cells were resuspended in culture medium RPMI 1640 containing 10% FBS, counted (1×10^5 cells/0.1 ml/well) and incubated for 48 hrs at 37° C., in a 5% carbon dioxide environment. At the incubation end, mitogens concavaline A (ConA) and phytohaemagglutinin (PHA) were added to the cultures at a concentration of 1 μg/ml in a volume of 0.1 ml. Eighteen hours later, tritiated thymidine (0.01 ml) was added to the cultures, subsequently incubated for 3 hrs. At the incubation end, cells were sucked by cell harvester and the filters were placed in scintillation vials with addition of 5 ml of scintillating solution. Radioactivity (dpm) was measured 2 min. using a β-counter.
The results obtained on ConA- or PHA-treated groups (controls), on PSC-treated groups (600 mg/kg), and on groups that had not been treated either with ConA or PSC are compared in Tables 14 and 15.

peripheral lymphocytes [3] = assay: Blastization with phytohaemagglutinin (PHA) of peripheral lymphocytes of PSC-treated rats; format: in vivo, Sprague-Dawley rats; conditions: 600 mg/kg i.p. 15 days + PHA
Description: as §1, §2
as §3, with “At the incubation end, cells were sucked by cell harvester and the filters were placed in scintillation vials with addition of 5 ml of scintillating solution.” left out, “β-counter. […]” for “β-counter.”

[4] = system: urethane-induced tumours of the lungs; assay: Urethane-induced tumours of the lungs in albino Swiss mice; format: in vivo
Description: Male albino adult Swiss mice (20-25 g) were used. All animals were inoculated i.p. with urethane. The animals were treated with PSC (600 mg/kg) 15 days prior to and after inoculation. Once the treatment was completed, the animals were sacrificed, their lungs excised and subjected to necrohistologic examination.

[5] = 600 mg/kg, analogous for ConA and PHA
[6] = 600 mg/kg i.p., 30 days' treatment, 15 days after urethane i.p.

CC(=O)SC[C@H](NC(=O)[C@@H]1CCC(=O)N1)C(=O)O [PSC, 2-(S)-(2-pyrrolidone-5-(S)-carbonyl amido)-3-acetylmercapto propionic acid] (HELM PEPTIDE1{[Glp].C}|PEPTIDE2{[ac]}$PEPTIDE1,PEPTIDE2,2:R3-1:R2$$$V2.0)
normalization of hepatic GSH (in words) (hepatic GSH; DCP-treated rats): could not normalize the values of hepatic GSH
GSH, average values (hepatic GSH; liver, DCP 2 ml/kg per os + 600 mg/kg i.p.): 2.7 nmol/mg protein
GSH, individual animals (hepatic GSH; liver, DCP 2 ml/kg per os + 600 mg/kg i.p., animals 1-4, listed as (I) (R = CH3), 600 mg/kg): 2.6 nmol/mg protein and 2.4 nmol/mg protein and 3.4 nmol/mg protein
restoring immunological functionality (in words) ([1]; CTX-immunodepressed old rat): effective in restoring a correct immunological functionality
antibodies levels (in words) ([1]; intraperitoneal, young and old rats): causes a considerable increase in antibodies levels both in young (Table 11) and old (Table 12) rats
serum antibodies level (agglutination, Days from immunization) ([1]; old rats, day 12): 2
serum antibodies level (agglutination, Days from immunization) ([1]; old rats, day 20): 8
serum antibodies level (agglutination, Days from immunization) ([1]; old rats, day 29): 32
serum antibodies level (agglutination, Days from immunization) ([1]; old rats, day 40): 64
serum antibodies level (agglutination, Days from immunization) ([1]; young rats, day 12): 2
serum antibodies level (agglutination, Days from immunization) ([1]; young rats, day 20): 4
serum antibodies level (agglutination, Days from immunization) ([1]; young rats, day 29): 20
serum antibodies level (agglutination, Days from immunization) ([1]; young rats, day 40): 20
blastization (tritiated thymidine incorporation), Young (peripheral lymphocytes [2]; 600 mg/kg i.p. 15 days + ConA): 714 ± 23 DPM × 100
blastization (tritiated thymidine incorporation), Elderly (peripheral lymphocytes [2]; 600 mg/kg i.p. 15 days + ConA, *P < 0.05): 512 ± 27 DPM × 100
incorporation index of tritiated thymidine, young rats (in words) (peripheral lymphocytes [2]; [5]): did not differ from controls
index of thymidine incorporation, old rats (in words) (peripheral lymphocytes [2]; [5]): showed an increased index of thymidine incorporation in respect of controls
blastization (tritiated thymidine incorporation), Young (peripheral lymphocytes [3]): 703 ± 44 DPM × 100
blastization (tritiated thymidine incorporation), Elderly (peripheral lymphocytes [3]; *P < 0.05): 533 ± 29 DPM × 100
Mice with neoplasms, % [4, 6]: 50%
Mice with neoplasms/group [4, 6]: 3/6
development of tumours of the lungs (in words) ([4]; chronic treatment): significantly slowed down the development of tumours of the lungs; also recorded: its action seems most potent on the tumours directly induced by contact with a chemical carcinogen, such as urethane
